Results as given in patent EP1013282A2, “Pharmaceutical and foodstuff compositions containing transferrins and antibacteral agents for potentiating host defence activity and the treatment of infections” (priority 1992, dated 1993).

What was measured:
[1] = tested on: Proteus mirabilis strain 1287; assay: Upper urinary tract infection in mice, kidney colony count (Example 9); format: in vivo; conditions: for colony count ratio, lactoferrin (+) to (-): Lactoferrin (+) relative to Lactoferrin (-)
Text: Example 9-Male ICR mice, five weeks old, were dehydrated overnight, and Proteus mirabilis strain 1287 was inoculated into the bladder at a dose of 2 x 10^5 CFU per mouse. In order for the pathogen to colonize the kidneys, the urethra was closed by a clip for four hours. Ampicillin was orally given to the mice twice daily (10:00 am and 7:00 pm) for two consecutive days with or without oral lactoferrin therapy. On day 3 all mice were sacrificed and the kidneys were dissected ascetically. The kidneys were homogenized in sterile saline and the homogenate was spread over nutrient agar plates to determine the numbers of colonizing bacteria. […]

[2] = tested on: Proteus vulgaris OX.8; assay: Intraperitoneal Proteus vulgaris infection in mice: oral β-lactam with or without oral lactoferrin (Example 4); format: in vivo; conditions: for ED50: ddY mice n=6, survivors at one week; for simultaneous administration with lactoferrin reduced the ED50s to: fraction of ED50 of antibiotic alone, lactoferrin 0.5 mg/mouse
Method: Example 4-The efficacy potentiation of lactoferrin was examined using mice infected with Proteus vulgaris OX.8. Each group of six mice, strain ddY, four weeks old, were intraperitoneally infected with P. vulgaris suspended in 3% gastric mucin at a dose of 2 x 10^6 cells per mouse. One hour after the injection, lactoferrin (0.5 mg/mouse) was orally given simultaneously with cephalosporins. […]
Consequently, the efficacy potentiation of cephalosporin due to simultaneous treatment with lactoferrin is not restricted merely to the pathogens belonging to the genus Escherichia and Klebsiella, but also includes Proteus.

[3] = tested on: Escherichia coli c 11; assay: Timing of lactoferrin administration with cefaclor in E. coli infected mice (Example 7); format: in vivo; conditions: control (no lactoferrin)
Text: Example 7-The timing of lactoferrin administration is very important not only from a clinical point of view, but also from an economical point of view, since it indicates whether or not the treatment with lactoferrin is prophylactic, or curative, or both. The timing was studied using the same model as described in Example 6. Cefaclor was orally given one hour after injection of the bacteria. […]

[4] = Serum concentrations of cephalosporins with or without lactoferrin, bioassay with Bacillus subtilis (Experimental Example 2)
Method: Experimental Example 2-The effect of lactoferrin on intestinal absorption of cephalosporin antibiotics was studied using male ddY mice (n=6), five weeks old.
The cephalosporin antibiotics used were cephalexin, cefixime, cefaclor and cefroxazine, and the serum , concentrations were determined by bioassay using Bacillus subtilis. The doses of the antibiotics and lactoferrin were 0.5 mg per mouse of each.

[5] = tested on: Escherichia coli strain c-11; assay: Intraperitoneal E. coli infection in mice: oral cephalosporin with or without oral lactoferrin (Example 3); format: in vivo; conditions: for ED50: ddY mice n=6, survivors at one week; for ED50s reduced by simultaneous administration of lactoferrin to: fraction of ED50 of antibiotic alone, lactoferrin 1 mg/mouse
Method: Example 3-groups of six male mice strain ddY, four weeks old, were used in this experiment. They were intraperitoneally infected with 3% mucin suspension of Escherichia coli strain c-11 at a dose of 1 X 10^6 cells per mouse. Oral cephalosporin antibiotic was administered one hour after the injection simultaneously with bovine milk lactoferrin (26% iron saturation), 1 mg/mouse. Each control was given cephalosporin alone. The mice were observed one week after the injection and survivors were regarded as completely cured. […]

[6] = tested on: Escherichia coli c 11; assay: Optimal dose of lactoferrin with cefaclor in E. coli infected mice (Example 6); format: in vivo; conditions: Lactoferrin dose 0.000 (cefaclor alone)
Method: Example 6-Optimal dose of lactoferrin was studied using mice strain ddY (n=6), four weeks old. The mice were intraperitoneally infected with Escherichia coli c 11 at a dose of 1 x 10^6 cells per mouse, and they were treated once orally with a mixture of lactoferrin and cefaclor one hour after the injection.

[7] = tested on: Escherichia coli c 11; assay: Intraperitoneal E. coli infection in mice: other chemotherapies with or without lactoferrin (Example 5); format: in vivo; conditions: for ED50: gentamicin subcutaneous, ddY mice n=6; for potentiation of efficacy of the chemotherapy by lactoferrin: lactoferrin 0.5 mg/mouse oral, in vivo
Text: Example 5-The antimicrobial activities of chemotherapies were compared with or without lactoferrin treatment. The antimicrobial agents used were new quinolones, aminoglycoside antibiotic, gentamicin, erythromycin, chloramphenicol and minocycline. The efficacy was compared between the controls and lactoferrin groups. Mice strain ddY, four weeks old, were randomly allocated into groups (n=6) and intraperitoneally infected with Escherichia coli c 11 at a dose of 1 x 10^6 cells per mouse. One hour after the injection the chemotherapies and lactoferrin (0.5 mg/mouse) were simultaneously given orally except gentamicin was given subcutaneously since it is unabsorable from the intestinal tract. Evaluation of potentiation of the chemotherapies by lactoferrin is the same as described above. […]

[8] = antibiotic alone (Lactoferrin -), oral one hour after infection
[9] = antibiotic with Lactoferrin + (0.5 mg/mouse, oral, simultaneous)
[10] = mice, oral, lactoferrin simultaneously, blood withdrawn periodically
[11] = antibiotic with Lactoferrin + (bovine milk lactoferrin 1 mg/mouse, oral, simultaneous)
[12] = agent alone (Lactoferrin -), oral, one hour after infection
[13] = agent with Lactoferrin + (0.5 mg/mouse oral, simultaneous)

| Molecule | ED50 [2, 8] | ED50 [2, 9] | simultaneous administration with lactoferrin reduced the ED50s to [2] | ED50 [5, 8] | ED50 [5, 11] | ED50s reduced by simultaneous administration of lactoferrin to [5] | ED50 [7, 12] | ED50 [7, 13] | other results |
| --- | --- | --- | --- | --- | --- | --- | --- | --- | --- |
| CC1(C)S[C@@H]2[C@H](NC(=O)[C@H](N)c3ccccc3)C(=O)N2[C@H]1C(=O)O [ampicillin] | 0.300 mg/mouse | 0.148 mg/mouse | 1/2 |  |  |  |  |  | colony quantity, Lactoferrin (-) ([1]; ampicillin 0.01 mg/mouse): 100,704 CFU/kidney; colony quantity, Lactoferrin (+) ([1]; ampicillin 0.01 mg/mouse with lactoferrin 1 mg per mouse): 58 CFU/kidney; colony count ratio, lactoferrin (+) to (-) ([1]; ampicillin 0.01 mg/mouse): 1/1736; colony quantity, Lactoferrin (-) ([1]; ampicillin 0.1 mg/mouse): 63,216 CFU/kidney; colony quantity, Lactoferrin (+) ([1]; ampicillin 0.1 mg/mouse with lactoferrin 1 mg per mouse): 36 CFU/kidney; colony count ratio, lactoferrin (+) to (-) ([1]; ampicillin 0.1 mg/mouse): 1/1756; colony quantity, Lactoferrin (-) ([1]; ampicillin 1.0 mg/mouse oral twice daily for two days, ICR mice, kidneys on day 3): 88 CFU/kidney; colony quantity, Lactoferrin (+) ([1]; ampicillin 1.0 mg/mouse with lactoferrin 1 mg per mouse): 0 CFU/kidney; colony count ratio, lactoferrin (+) to (-) ([1]; ampicillin 1.0 mg/mouse): <1/88 |
| N[C@@H](C(=O)N[C@@H]1C(=O)N2C(C(=O)O)=C(Cl)CS[C@H]12)c1ccccc1 [cefaclor] | 1.790 mg/mouse | 0.058 mg/mouse | 1/3 | 0.75 mg/mouse | 0.38 mg/mouse | 1/2 |  |  | ED50 [3]: 1.846 mg/mouse; blood levels of the antibiotics with versus without lactoferrin [4, 10]: virtually the same; ED50 [6]: 1.510 mg/mouse |
| CC1=C(C(=O)O)N2C(=O)[C@@H](NC(=O)[C@H](N)c3ccccc3)[C@H]2SC1 [cefalexin] | 0.402 mg/mouse | 0.185 mg/mouse | 1/2 | 8.54 mg/mouse | 1.42 mg/mouse | 1/4 |  |  | blood levels of the antibiotics with versus without lactoferrin ([4]; mouse, in vivo, po): virtually the same |
| C=CC1=C(C(=O)O)N2C(=O)[C@@H](NC(=O)/C(=N\OCC(=O)O)c3csc(N)n3)[C@H]2SC1 [cefixime] | 0.519 mg/mouse | 0.177 mg/mouse | 1/3 | 1.03 mg/mouse | 0.23 mg/mouse | 1/4 |  |  | blood levels of the antibiotics with versus without lactoferrin [4, 10]: virtually the same |
| COC1=C(C(=O)O)N2C(=O)[C@@H](NC(=O)[C@H](N)C3=CCC=CC3)[C@H]2SC1 [cefroxadine] | 0.606 mg/mouse | 0.312 mg/mouse |  | 1.27 mg/mouse | 0.42 mg/mouse | 1/3 |  |  | blood levels of the antibiotics with versus without lactoferrin [4, 10]: virtually the same |
| O=C(N[C@H](CO)[C@H](O)c1ccc([N+](=O)[O-])cc1)C(Cl)Cl [chloramphenicol] |  |  |  |  |  |  | 5.11 mg/mouse | 1.94 mg/mouse | potentiation of efficacy of the chemotherapy by lactoferrin [7]: potentiated the efficacy |
| O=C(O)c1cn(C2CC2)c2cc(N3CCNCC3)c(F)cc2c1=O [ciprofloxacin] |  |  |  |  |  |  | 0.200 mg/mouse | 0.214 mg/mouse |  |
| CC[C@H]1OC(=O)[C@H](C)[C@@H](O[C@H]2C[C@@](C)(OC)[C@@H](O)[C@H](C)O2)[C@H](C)[C@@H](O[C@@H]2O[C@H](C)C[C@H](N(C)C)[C@H]2O)[C@](C)(O)C[C@@H](C)C(=O)[C@H](C)[C@@H](O)[C@]1(C)O [erythromycin] |  |  |  |  |  |  |  |  | potentiation of efficacy of the chemotherapy by lactoferrin [7]: potentiated the efficacy |
| CN(C)c1ccc(O)c2c1C[C@H]1C[C@H]3[C@H](N(C)C)C(O)=C(C(N)=O)C(=O)[C@@]3(O)C(O)=C1C2=O [minocycline] |  |  |  |  |  |  | 1.859 mg/mouse | 0.631 mg/mouse |  |
| CC1COc2c(N3CCN(C)CC3)c(F)cc3c(=O)c(C(=O)O)cn1c23 (stereo not shown) [ofloxacin] |  |  |  |  |  |  | 0.231 mg/mouse | 0.251 mg/mouse |  |
| NC1CCN(c2nc3c(cc2F)c(=O)c(C(=O)O)cn3-c2ccc(F)cc2F)C1 (stereo not shown) [tosfloxacin] |  |  |  |  |  |  | 0.013 mg/mouse | 0.009 mg/mouse |  |
| gentamicin |  |  |  |  |  |  | 0.608 mg/mouse | 0.610 mg/mouse |  |
